From US12590066B2, “Fused-heterocyclyl-carbonohydrazonoyl dicyanide compounds and use thereof” (KOREA INSTITUTE OF SCIENCE AND TECHNOLOGY, priority 2020, dated 2026)

Assays:
Type in all cases: in vitro ADME
[1] = target: T1, CYP2D6 (Homo sapiens, UniProt P10635); assay: Inhibitory effect on CYP coenzyme activity, human liver microsomes; settings: 10 μM compound, human liver microsomes 0.25 mg/mL, substrate dextromethorphan, 15 minutes
T1 construct: human liver microsomes (0.25 mg/mL); from tissue; host or cells: human liver microsomes
T1 sequence (P10635 whole entry): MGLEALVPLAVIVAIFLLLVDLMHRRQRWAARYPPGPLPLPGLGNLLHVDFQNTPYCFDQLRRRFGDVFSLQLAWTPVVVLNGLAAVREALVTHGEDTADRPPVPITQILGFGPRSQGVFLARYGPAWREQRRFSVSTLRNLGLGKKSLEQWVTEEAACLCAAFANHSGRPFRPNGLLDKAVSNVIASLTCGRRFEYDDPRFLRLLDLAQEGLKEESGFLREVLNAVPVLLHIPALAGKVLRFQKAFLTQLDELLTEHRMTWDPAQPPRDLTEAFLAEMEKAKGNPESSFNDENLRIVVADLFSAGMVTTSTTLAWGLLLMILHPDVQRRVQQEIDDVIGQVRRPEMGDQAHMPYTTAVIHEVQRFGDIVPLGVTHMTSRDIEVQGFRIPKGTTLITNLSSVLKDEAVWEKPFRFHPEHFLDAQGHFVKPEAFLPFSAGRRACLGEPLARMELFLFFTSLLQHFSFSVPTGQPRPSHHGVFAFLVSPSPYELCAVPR
Method in brief: (§1)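 Compounds, tested at 10 μM, were incubated with human liver microsomes and a substrate cocktail including phenacetin, diclofenac, S-mephenytoin and dextromethorphan in phosphate buffer at pH 7.4 and 37 °C. Results are percent of control CYP activity.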

[2] = target: T2, CYP2C9 (Homo sapiens, UniProt P11712); assay: as above; settings: 10 μM compound, human liver microsomes 0.25 mg/mL, substrate diclofenac, 15 minutes
T2 construct: human liver microsomes (0.25 mg/mL); from tissue; host or cells: human liver microsomes
T2 sequence (P11712 whole entry): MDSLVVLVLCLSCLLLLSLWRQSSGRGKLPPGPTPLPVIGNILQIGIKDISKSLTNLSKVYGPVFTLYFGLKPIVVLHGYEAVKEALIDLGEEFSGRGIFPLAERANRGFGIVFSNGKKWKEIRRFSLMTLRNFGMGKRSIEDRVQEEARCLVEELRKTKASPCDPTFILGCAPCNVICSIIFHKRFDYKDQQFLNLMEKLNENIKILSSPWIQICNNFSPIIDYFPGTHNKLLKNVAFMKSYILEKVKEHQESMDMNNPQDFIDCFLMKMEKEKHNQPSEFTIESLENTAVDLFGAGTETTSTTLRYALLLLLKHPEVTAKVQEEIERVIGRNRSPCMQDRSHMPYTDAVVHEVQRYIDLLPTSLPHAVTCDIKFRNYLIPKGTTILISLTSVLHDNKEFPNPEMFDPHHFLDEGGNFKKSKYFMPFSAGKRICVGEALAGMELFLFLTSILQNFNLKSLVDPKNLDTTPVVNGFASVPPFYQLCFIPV
Method in brief: as §1

[3] = target: T3, CYP3A4 (Homo sapiens, UniProt P08684); assay: as above; settings: 10 μM compound, human liver microsomes 0.25 mg/mL, substrate midazolam, 15 minutes
T3 construct: human liver microsomes (0.25 mg/mL); from tissue; host or cells: human liver microsomes
T3 sequence (P08684 whole entry): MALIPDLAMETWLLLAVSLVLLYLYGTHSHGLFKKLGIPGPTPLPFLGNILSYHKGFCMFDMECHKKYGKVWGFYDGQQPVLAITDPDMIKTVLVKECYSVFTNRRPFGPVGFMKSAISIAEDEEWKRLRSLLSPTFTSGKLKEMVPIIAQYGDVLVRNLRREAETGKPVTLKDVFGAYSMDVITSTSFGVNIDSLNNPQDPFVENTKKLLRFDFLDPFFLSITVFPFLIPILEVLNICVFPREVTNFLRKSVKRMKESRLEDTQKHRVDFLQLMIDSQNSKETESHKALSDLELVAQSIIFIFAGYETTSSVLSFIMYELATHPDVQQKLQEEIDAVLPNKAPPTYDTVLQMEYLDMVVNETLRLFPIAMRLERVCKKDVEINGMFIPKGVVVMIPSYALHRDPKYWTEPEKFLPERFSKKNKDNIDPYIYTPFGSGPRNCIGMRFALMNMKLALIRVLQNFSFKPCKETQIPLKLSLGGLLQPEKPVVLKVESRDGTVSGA
Method in brief: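 Human liver microsomes (0.25 mg/mL) in 0.1 M phosphate pH 7.4 were preincubated 5 min at 37 °C with a substrate cocktail (50 μM phenacetin, 10 μM diclofenac, 100 μM S-mephenytoin, 5 μM dextromethorphan, 2.5 μM midazolam) and 10 μM compound, then run 15 min with NADPH-generating system. Metabolites quantified by LC-MS/MS (MRM); activity expressed as % of untreated control.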

[4] = target: T4, CYP1A2 (Homo sapiens, UniProt P05177); assay: as above; settings: 10 μM compound, human liver microsomes 0.25 mg/mL, substrate phenacetin, 15 minutes
T4 construct: human liver microsomes (0.25 mg/mL); from tissue; host or cells: human liver microsomes
T4 sequence (P05177 1-516): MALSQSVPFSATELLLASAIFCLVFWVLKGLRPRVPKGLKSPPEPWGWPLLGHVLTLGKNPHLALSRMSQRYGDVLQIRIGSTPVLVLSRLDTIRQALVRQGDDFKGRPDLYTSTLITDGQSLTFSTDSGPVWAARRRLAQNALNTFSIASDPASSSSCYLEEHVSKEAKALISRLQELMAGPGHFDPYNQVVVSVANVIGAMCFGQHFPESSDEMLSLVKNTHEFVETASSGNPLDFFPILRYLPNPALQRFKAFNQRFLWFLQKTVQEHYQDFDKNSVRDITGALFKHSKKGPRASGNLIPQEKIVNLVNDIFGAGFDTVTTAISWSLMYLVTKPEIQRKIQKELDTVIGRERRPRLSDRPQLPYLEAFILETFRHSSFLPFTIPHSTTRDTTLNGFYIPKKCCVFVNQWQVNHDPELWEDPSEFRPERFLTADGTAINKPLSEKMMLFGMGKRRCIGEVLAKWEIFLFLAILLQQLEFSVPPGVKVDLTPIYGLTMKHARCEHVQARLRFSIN
Method in brief: as §1

[5] = target: T5, CYP2C19 (Homo sapiens, UniProt P33261); assay: as above; settings: 10 μM compound, human liver microsomes 0.25 mg/mL, substrate S-mephenytoin, 15 minutes
T5 construct: human liver microsomes (0.25 mg/mL); from tissue; host or cells: human liver microsomes
T5 sequence (P33261 whole entry): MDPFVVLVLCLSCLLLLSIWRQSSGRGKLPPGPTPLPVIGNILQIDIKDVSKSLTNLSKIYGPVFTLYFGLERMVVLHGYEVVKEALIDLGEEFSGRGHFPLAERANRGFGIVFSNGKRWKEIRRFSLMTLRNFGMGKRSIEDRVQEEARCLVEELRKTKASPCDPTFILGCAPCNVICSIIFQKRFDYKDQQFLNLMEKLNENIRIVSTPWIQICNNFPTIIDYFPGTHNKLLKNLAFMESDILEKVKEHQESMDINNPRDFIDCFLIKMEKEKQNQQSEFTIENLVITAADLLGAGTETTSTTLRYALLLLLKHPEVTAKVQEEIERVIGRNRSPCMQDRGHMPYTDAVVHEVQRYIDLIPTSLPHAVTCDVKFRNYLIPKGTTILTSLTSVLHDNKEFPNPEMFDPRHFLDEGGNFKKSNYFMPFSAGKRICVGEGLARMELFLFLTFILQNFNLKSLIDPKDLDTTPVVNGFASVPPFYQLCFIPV
Method in brief: as §1

[6] = Liver microsome stability; settings: 1 μM compound, 37° C., 30 minutes, NADPH; for Human (%) amount of substrate remaining after the reaction: human liver microsomes 0.25 mg/mL; for Mouse (%) amount of substrate remaining after the reaction: mouse liver microsomes 0.25 mg/mL; for Rat (%) amount of substrate remaining after the reaction: rat liver microsomes 0.25 mg/mL; for Dog (%) amount of substrate remaining after the reaction: dog liver microsomes 0.25 mg/mL
Method in brief: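 Human, dog, rat and mouse liver microsomes (0.25 mg/mL) with 1 μM compound in 0.1 M phosphate buffer pH 7.4, preincubated 5 min at 37° C, then incubated 30 min at 37° C with NADPH-generating system. Reaction stopped with acetonitrile plus internal standard; remaining parent quantified by LC-MS/MS.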

| Structure (SMILES) | CYP2D6 coenzyme activity (%) with respect to control group not treated [1] [%] | CYP2C9 coenzyme activity (%) with respect to control group not treated [2] [%] | CYP3A4 coenzyme activity (%) with respect to control group not treated [3] [%] | CYP1A2 coenzyme activity (%) with respect to control group not treated [4] [%] | CYP2C19 coenzyme activity (%) with respect to control group not treated [5] [%] | Human (%) amount of substrate remaining after the reaction [6] [%] | Mouse (%) amount of substrate remaining after the reaction [6] [%] | Rat (%) amount of substrate remaining after the reaction [6] [%] | Dog (%) amount of substrate remaining after the reaction [6] [%] |
| --- | --- | --- | --- | --- | --- | --- | --- | --- | --- |
| CC(C)n1c(=O)n(C(C)C)c2ncc(NN=C(C#N)C#N)cc21 [Compound 34, (1,3-diisopropyl-2-oxo-2,3-dihydro-1H-imidazo[4,5-b]pyridin-6-yl)carbonohydrazonoyl dicyanide] | 99.1 | 41.9 | 90.2 | >100 | 88.8 | >100 | 86.6 | 57.5 |  |
| CC(C)n1c(=O)n(C(C)C)c2cc(NN=C(C#N)C#N)ccc21 [Compound 23, (1,3-diisopropyl-2-oxo-2,3-dihydro-1H-benzo[d]imidazol-5-yl)carbonohydrazonoyl dicyanide] | 95.3 | 46.4 | 79.6 | 83.2 | 69.7 | 83.1 | 72.4 | 77.7 | 86.1 |
| CC(C)n1c(=O)n(C2CC2)c2ncc(NN=C(C#N)C#N)cc21 [Compound 53, (3-cyclopropyl-1-isopropyl-2-oxo-2,3-dihydro-1H-imidazo[4,5-b]pyridin-6-yl)carbonohydrazonoyl dicyanide] | >100 | 75.3 | 97.8 | >100 | >100 | 84.6 | 83.5 | 82.1 |  |
| CC(C)n1c(=O)n(C)c2ccc(NN=C(C#N)C#N)cc21 [Compound 36, (3-isopropyl-1-methyl-2-oxo-2,3-dihydro-1H-benzo[d]imidazol-5-yl)carbonohydrazonoyl dicyanide] | >100 | 36.6 | 95.8 | 93.7 | 89.5 | >100 | 89.4 | 86.4 |  |
| Cn1c(=O)oc2cc(NN=C(C#N)C#N)ccc21 [Compound 16, (3-methyl-2-oxo-2,3-dihydrobenzo[d]oxazol-6-yl)carbonohydrazonoyl dicyanide] | >100 | 54.9 | 99.8 | 91.5 | 90.8 | 98.9 | 81 | 89.1 | 95.7 |
